Values joined by “and” are separate entries in the source; they are usually repeats but may differ in a detail not shown here. Identical values can stand only once. “Also recorded” adds a separate entry of the source. Like-named read-outs stand apart in the source and are kept apart here.
Legend:
[1] = test system: Salmonella typhimurium ATCC 14028; assay: Effect on viability of Salmonella in suspension (Tables D-1 to D-3); assay type: cell-based
Experimental: EC50 values for four of the compounds were calculated from the bactericidal activity of the compounds as a function of molar concentration by a nonlinear regression algorithm.
In addition to the quaternary ammonium compounds, the antimicrobial activities of chelating agents Na2 -EDTA and EGTA were investigated. Na2 -EDTA was purchased from the Sigma Chemical Company (St. Louis, Mo.). Na2 -EDTA was dissolved in 0.04 M PPB prior to the assay and further dilutions were made in the same buffer.
EGTA was purchased from the Aldrich Chemical Company (Milwaukee, Wis.). EGTA was dissolved in 0.04 M PPB according to the procedure described by Harafuji and Ogawa (J. Biochem. 87:1305-1312 (1980)). After heating EGTA for 15 minutes at 80° C., the pH was adjusted to 7.0 by addition of NaOH. EGTA was filter-sterilized using a 0.2 μm Acro disc filter (Gelman Sciences; Ann Arbor, Mich.) prior to the assay. Further dilutions were made in sterile PPB.

[2] = test system: Salmonella typhimurium ATCC 14028 attached to human buccal epithelial cells; assay type: cell-based
Experimental: Studies were conducted on the attachment of Salmonella typhimurium to human buccal epithelial cells using the modified procedure of Boussard et al., International J. Pharmaceutics 53: 253-256 (1989). In this study, the activities of cationic and anionic surfactant compounds as well as certain chelating agents were compared on the detachment of S. typhimurium from epithelial cells.
To this end, bacteria were grown on nutrient agar for 16 hours at 37° C. The cells were suspended in 0.008 M phosphate buffered saline (PBS) at pH 7.2 and washed two times at 4500 rpm for 10 minutes. The last suspension was diluted in PBS to obtain a cell concentration of 0.5 to 1×10^9 cells/ml. Human epithelial cells were obtained by swabbing the buccal surface of a healthy, nonsmoking donor. […] The number of living cells was estimated and the suspension diluted to 0.5 to 1×10^5 cells/ml.
Next, the suspension of the human buccal cells was mixed with an equal volume of the bacterial suspension (3.0 ml), or PBS (0.8 ml). Contact was allowed for 1.5 hours at 35° C. under agitation. The mixtures were then centrifuged for 10 minutes at 4500 rpm. Each suspension, 1.0 ml, was transferred into Eppendorf vials and washed with PBS at 1500 rpm for 10 minutes. After the washing, the cells were treated with 1.0 ml PBS or 1.0 ml of the test chemical solution. Treatment was performed by suspending and vortexing on a low speed for 30 seconds followed by centrifugation at 1500 rpm for 10 minutes.
After the treatment, the cells were washed once with PBS and then 20 μl of erythrosin B was added to each vial. The suspension was centrifuged at 1500 rpm for 10 minutes, and the cells were washed twice under the same conditions. The final pellet was suspended in 300 μl of PBS. This suspension was spread out onto microscope slides and dried overnight at room temperature. After counter staining with methylene blue, the slides were microscopically examined under oil immersion.

[3] = test system: Salmonella typhimurium ATCC 14028 attached to human buccal epithelial cells; assay: microbe, parasite or virus in culture; assay type: cell-based; conditions: for adherence, mean value of attached bacteria: Table A-3
Experimental: Additional studies on the detachment of Salmonella typhimurium from human buccal epithelial cells were conducted.
S. typhimurium ATCC 14028 was grown in nutrient broth (BBL Microbiology system, Cockeysville, Md.) for 16 hours at 37° C. The cells were centrifuged and washed twice with 0.008 M phosphate buffered saline (PBS, at pH 7.2) at 4500 rpm for 10 minutes. The last suspension was diluted in PBS to obtain a cell concentration 0.5 to 1×10^9 cells/ml using spectrophotometric measurement. Human epithelial cells were obtained by swabbing the buccal surface of a healthy, nonsmoking donor. […] The number of living cells was estimated and the suspension was diluted to 0.5 to 1×10^5 cells/ml.
The suspension of the human buccal cells was mixed with an equal volume of the bacterial suspension (3.0 ml), or PBS (0.8 ml) in 10 ml Erlenmeyer flasks. Contact was allowed for 1.5 hours at 35° C. under agitation. After incubation, 1.0 ml of each suspension was transferred into an Eppendorff vial, centrifuged at 3000 rpm for 10 minutes, and washed with PBS. The cells were treated with 1.0 ml PBS or 1.0 ml of the test chemical solution. Treatment was performed by suspending, gently vortexing, and centrifuging at 1500 rpm for 10 minutes. After the treatment, the cells were washed and placed on microscopic slides for examination.
EC50 represents the inverse measurement of the potency of a compound. EC50 values were determined by a nonlinear regression of the detachment effect versus the cationic surfactant concentration data from Table A-3.

[4] = test system: Salmonella typhimurium on chicken skin; assay: Effect of surfactants on Salmonella attached to chicken skin, drumsticks (Tables F1-F4)
Experimental: The following experiments utilizing chicken legs were conducted to determine the killing potential of a variety of surfactants against Salmonella on the skin and free in solutions. To this end, chicken legs obtained from the Department of Agriculture at the University of Arkansas, Fayetteville, were incubated for thirty minutes at room temperature with a 1:5000 dilution of Salmonella typhimurium. The chicken legs were removed five at a time and then rinsed twice in tap water to remove the unattached and excess Salmonella. The rinse water was sampled, diluted, and then plated onto XLD pour plates. […] The chicken legs were then removed and rinsed twice in tap water to remove the released Salmonella and excess chemicals. Rinses were then sampled, diluted, and then plated onto XLD pour plates.
The chicken legs were then individually washed with 100 ml sterile double distilled water, and then shaken fifty times. Samples of the wash H2 O were diluted and plated onto XLD pour plates. The chicken legs were further swabbed after the washing step above. The swabs were then plated onto the XLD plates. A set of wash samples were enriched with TT Broth Base Hajna and then plated onto XLD plates.
All of the samples were plated in 1 ml aliquots onto XLD pour plates. A positive control sample incubated in sterile double distilled water at 4° C. was run for each of the aforementioned conditions. Treatments occurred at both 4° C. and 25° C. The data is reported as the mean number of CFU/ml. The ratio in the table represents the number of chicken legs out of a sample of ten chicken legs producing the notated number of colonies, as indicated by the +, ++, +++, or ++++.

[5] = test system: Salmonella typhimurium ATCC 14028; assay: Minimum growth inhibitory concentration, macrodilution; assay type: cell-based; conditions: Salmonella enterica, Mueler Hinton broth, macrodilution (NCCLS)
Experimental: Minimum growth inhibitory concentrations (MICs) of quaternary ammonium compounds and Na2 -EDTA for Salmonella were determined using Mueler Hinton broth (BBL Microbiology system, Cockeysville, Md.) and by the macrodilution method established by the National Committee for Clinical Laboratory Standards (NCCLS). Escherichia coli ATCC 25922 and Staphylococcus aureus ATCC 29213 were included in each assay as reference strains.

[6] = test system: Salmonella typhimurium on chicken skin; assay: Prevention of attachment of Salmonella on excised chicken skin (Table F5); conditions: rinse water; 30 minutes at room temperature
Experimental: To determine the ability of surfactants to inhibit attachment or produce detachment of Salmonella, the following experiment was conducted. A hole was bored into the bottom of a 150 ml specimen cup. Chicken skin was excised from a drum stick and then placed over the cap of the specimen cup, and then the cap was screwed on. S. typhimurium was diluted 1:5000 with PBS or a surfactant. The surfactants were diluted appropriately. The skin was then inoculated with the solution containing the S. typhimurium and the surfactant for 30 minutes at room temperature.
Following incubation, the skin was washed. The rinse water was diluted appropriately in PBS and then plated onto XLD pour plates. The S. typhimurium was counted and reported as CFU/ml. The skin was swabbed so as to remove any remaining S. typhimurium using a nitroellulose lift and the CFU's/ml on the lift were also counted.

`CCCCCCCCCCCC[n+]1ccccc1` [DPC, dodecylpyridinium chloride] was tested, and the bacterial viability ([1]; 10 ug/ml, Table D-1) was 1.39 ± 0.34 × 10^9 CFU/ml, the bacterial viability ([1]; 100 ug/ml, Table D-1) was 9.8 ± 2.17 × 10^8 CFU/ml and 8.85 ± 0.3 × 10^8 CFU/ml and the bacterial viability ([1]; 200 ug/ml, Table D-1) was < 10^5 CFU/ml. For the same molecule, the bacterial viability ([1]; 400 ug/ml, Table D-1) was 0 CFU/ml, the bacterial viability ([1]; 1000 ug/ml, Table D-1) was 0 CFU/ml and the “adherence, mean value of attached bacteria” value (“adherence, mean value” for short) ([2]; 10 ug/ml, Table A-1) was 70 ± 35. For the same molecule, the “adherence, mean value” value ([2]; 25 ug/ml, Table A-1) was 55 ± 23, the “adherence, mean value” value ([2]; 50 ug/ml, Table A-1) was 46 ± 28 and the “adherence, mean value” value ([2]; 75 ug/ml, Table A-1) was 34 ± 20. For the same molecule, the “adherence, mean value” value ([2]; 100 ug/ml, Table A-1) was 34 ± 18, the “adherence, mean value” value ([2]; 500 ug/ml, Table A-1) was 14 ± 10 and the “adherence, mean value” value ([3]; 100 ug/ml) was 129 ± 87. For the same molecule, the “adherence, mean value” value ([3]; 150 ug/ml) was 141 ± 66, the “adherence, mean value” value ([3]; 175 ug/ml) was 110 ± 73 and the “adherence, mean value” value ([3]; 250 ug/ml) was 62 ± 50. The “adherence, mean value” value ([3]; 300 ug/ml) was 61 ± 34, the “adherence, mean value” value ([3]; 450 ug/ml) was 54 ± 23 and the EC50 ([3]; Salmonella enterica, Epithelial cell, read-out: EC50 (±SD), detachment) was 716 ± 63 µM. The “Enrichment, chicken legs out of ten” value ([4]; 0.1%, 25° C.) was 8/10, the “Rinse H2O” value ([4]; 0.1%, 25° C.) was 0 CFU/ml and the “Surfactant Solution” value ([4]; 0.1%, 25° C.) was 0 CFU/ml. The “Swabs, chicken legs producing the notated number of colonies” value (from here on “Swabs … of colonies”) ([4]; 0.1%, 25° C.) was 0/10, the “Wash H2O, chicken legs producing the notated number of colonies” value (“Wash H2O … of colonies” below) ([4]; 0.1%, 25° C.) was 7/10 and the “Wash H2O, colonies” value ([4]; 0.1%, 25° C.) was “++ (11-100)”. The “Enrichment, chicken legs out of ten” value ([4]; 1.0%, 25° C.) was 0/10, the “Rinse H2O” value ([4]; 1.0%, 25° C.) was 0 CFU/ml and the “Surfactant Solution” value ([4]; 1.0%, 25° C.) was 0 CFU/ml. For the same molecule, the “Swabs … of colonies” value ([4]; 1.0%, 25° C.) was 0/10, the “Wash H2O, colonies” value ([4]; 1.0%, 25° C.) was 0 CFU/ml and the “Enrichment, chicken legs out of ten” value ([4]; .01%, 25° C.) was 10/10. For the same molecule, the “Rinse H2O” value ([4]; .01%, 25° C.) was “+ (1-10)”, the “Surfactant Solution” value ([4]; .01%, 25° C.) was 0 CFU/ml and the “Swabs … of colonies” value ([4]; .01%, 25° C.) was 6/10. The “Swabs, colonies” value ([4]; .01%, 25° C.) was “+ (1-10)”, the “Wash H2O … of colonies” value ([4]; .01%, 25° C.) was 10/10 and the “Wash H2O, colonies” value ([4]; .01%, 25° C.) was “++ (11-100)”. It also gave an MIC ([5]; read-out: MIC) of 80 µg/mL.

With `O=C(O)CN(CCN(CC(=O)O)CC(=O)O)CC(=O)O` [Na2 -EDTA, disodium ethylenectiaminetetraacetate, reference compound] the bacterial viability ([1]; 1,250 μg/ml, Table D-3) was 9.48 ± 0.63 × 10^8 CFU/ml, the bacterial viability ([1]; 2,500 μg/ml, Table D-3) was 9.68 ± 0.16 × 10^8 CFU/ml and the bacterial viability ([1]; 5,000 μg/ml, Table D-3) was 9.89 ± 0.37 × 10^8 CFU/ml. The “bactericidal effect against S. typhimurium (in words)” value ([1]; viability testing in suspension) was “ineffective; also recorded: no bactericidal effect”, the “adherence, mean value” value ([2]; 500 ug/ml, Table A-2) was 43 ± 21 and the “adherence, mean value” value ([2]; 1250 ug/ml, Table A-2) was 22 ± 12. The “adherence, mean value” value ([2]; 2500 ug/ml, Table A-2) was 35 ± 18, the “adherence, mean value” value ([2]; 10,000 ug/ml, Table A-2) was 31 ± 14 and the “effect on bacteria attached to the epithelial cells (in words)” value ([2]; chelating agents, Na2-EDTA at 1250 μg/ml) was “highly effective”. For the same molecule, the MIC [5] was 625 µg/mL.

With `CCCCCCCCCCCCOS(=O)(=O)[O-].[Na+]` [SDS, sodium dodecylsulfate, reference compound] the “adherence, mean value” value ([2]; 25 ug/ml, Table A-1) was 43 ± 25, the “adherence, mean value” value ([2]; 50 ug/ml, Table A-1) was 26 ± 19 and the “cytotoxicity to buccal epithelial cells” value ([2]; 500 ug/ml, Table A-1) was “cytotoxic”. For the same molecule, the “Enrichment, chicken legs out of ten” value ([4]; 0.1%, 4° C.) was 10/10, the “Rinse H2O” value ([4]; 0.1%, 4° C.) was “++ (11-100)” and the “Surfactant Solution” value ([4]; 0.1%, 4° C.) was “++ (11-100)”. For the same molecule, the “Swabs … of colonies” value ([4]; 0.1%, 4° C.) was 10/10, the “Swabs, colonies” value ([4]; 0.1%, 4° C.) was “++ (11-100)” and the “Wash H2O … of colonies” value ([4]; 0.1%, 4° C.) was 10/10. For the same molecule, the “Wash H2O, colonies” value ([4]; 0.1%, 4° C.) was “++ (11-100)”, the “Enrichment, chicken legs out of ten” value ([4]; 0.5%, 4° C.) was 10/10 and the “Rinse H2O” value ([4]; 0.5%, 4° C.) was “+ (1-10)”. The “Surfactant Solution” value ([4]; 0.5%, 4° C.) was “++ (11-100)”, the “Swabs … of colonies” value ([4]; 0.5%, 4° C.) was 10/10 and the “Swabs, colonies” value ([4]; 0.5%, 4° C.) was “++ (11-100)”. For the same molecule, the “Wash H2O … of colonies” value ([4]; 0.5%, 4° C.) was 10/10, the “Wash H2O, colonies” value ([4]; 0.5%, 4° C.) was “++ (11-100)” and the “Enrichment, chicken legs out of ten” value ([4]; 1.0%, 4° C.) was 10/10. The “Rinse H2O” value ([4]; 1.0%, 4° C.) was “+ (1-10)”, the “Surfactant Solution” value ([4]; 1.0%, 4° C.) was “+ (1-10)” and the “Swabs … of colonies” value ([4]; 1.0%, 4° C.) was 10/10. The “Swabs, colonies” value ([4]; 1.0%, 4° C.) was “++ (11-100)”, the “Wash H2O … of colonies” value ([4]; 1.0%, 4° C.) was 10/10 and the “Wash H2O, colonies” value ([4]; 1.0%, 4° C.) was “++ (11-100)”. The “CFU/ml on XLD agar” value [6] was 4 × 10^2 CFU/ml.
